From patent US20260125428A1, “SYNTHETIC TRIPLEX PEPTIDE NUCLEIC ACID-BASED INHIBITORS FOR CANCER THERAPY” (University of Connecticut, priority 2022, published 2026) come the findings set out here.

The test system of the data set is c-myc protein. The data set can be described thus: Efficacy study in Ep-myc mice: c-myc protein in lymph nodes by western blot. The following applies: SC 60 mg/kg over 2 days, euthanized day 3, western blot. It counts as in vivo. How it is done: FIGS. 8A-D show organ distribution after intravenous and subcutaneous administration of indicated PNAs. (8A) The organ distribution of γPNA-NLS TAMRA after intravenous (IV) and subcutaneous (SC) administration in transgenic mice model of B-cell lymphoma (Ep-myc). γPNA-NLS TAMRA was administered at 5 mg/kg via IV and SC route and organ distribution was determined via IVIS imaging after 24 h. (8B) Confocal microscopy images of different lymph nodes (LNs) after IV and SC injection of γPNA-NLS TAMRA. Blue indicates DAPI and red indicated TAMRA. Scale bar, 30 μm. (8C) C-myc protein levels in brachial lymph nodes of γPNA5-NLS treated mice in comparison to the control (untreated mice). N=4 mice per group. (8D) C-myc protein levels in axillary lymph nodes of γPNA5-NLS treated mice in comparison to the control (untreated mice). N=4 mice per group. […]
Western blot analysis: Total protein was extracted from collected lymphocytes using 1×RIPA buffer (Cell signaling technology, USA) containing protease inhibitor. The concentration of protein was determined using absorbance-based DC protein assay (Bio-Rad, USA). […] The bands were detected using anti-rabbit IgG HRP linked secondary antibody (Cell signaling technology, #7074) (1:2000 dilution, 5% milk in TBST) and HRP substrate (Millipore sigma). The blots were imaged using ChemiDoc imager (Bio-Rad, USA) and band intensities were quantified using imageJ.
A general note: A western blot detects proteins with antibodies after separation by electrophoresis.

For “X3TCCCTCCCCTCCCTTCTTTTTCCX2 (gamma PNA; NLS peptide; gammaPNA; misc_feature 1 JJJTJJJT-linker- is covalently linked to the backbone, wherein J is pseudoisocytosine and the linker is 11-Amino-3,6,9-Trioxaundecanoic Acid (DCHA), represented as -OOO-; misc_feature 23 -K-linker-SEQ ID NO: 5 is covalently linked to the backbone, wherein the linker is 11-Amino-3,6,9-Trioxaundecanoic Acid (DCHA), represented as -OOO-; modified_base 1..23 OTHER; peptide nuc) [γPNA5-NLS]”, the “c-myc protein levels in brachial and axillary lymph nodes in comparison to untreated group” value is given as “substantial decrease in c-myc protein levels”.
